Data as given in ChEMBL document CHEMBL4024759, “One-Bead-Two-Compound Thioether Bridged Macrocyclic γ-AApeptide Screening Library against EphA2” (J Med Chem, 2017).

Key:
Ephrin type-A receptor 2 = Ephrin type-A receptor 2 (Homo sapiens, UniProt P29317); assay: Binding affinity to recombinant human GST-tagged EphA2 cytoplasmic domain (560 to 976 residues) expressed in baculovirus expression system by fluorescence polarization assay
[1] = Binding affinity to GST (unknown origin) by fluorescence polarization assay; parameters: species or system Homo sapiens
Homo sapiens = organism: Homo sapiens; assay: Selectivity ratio of Kd for GST (unknown origin) to Kd for recombinant human GST-tagged EphA2 cytoplasmic domain (560 to 976 residues) expressed in baculovirus expression system
[2] = target: RAC-alpha serine/threonine-protein kinase (Homo sapiens, UniProt P31749); assay: Binding affinity to AKT1 (unknown origin)
[3] = target: T1, NF-kappa-B inhibitor alpha (Homo sapiens, UniProt P25963); assay: Binding affinity to NFKBIA (unknown origin)
T1 sequence (P25963 whole entry): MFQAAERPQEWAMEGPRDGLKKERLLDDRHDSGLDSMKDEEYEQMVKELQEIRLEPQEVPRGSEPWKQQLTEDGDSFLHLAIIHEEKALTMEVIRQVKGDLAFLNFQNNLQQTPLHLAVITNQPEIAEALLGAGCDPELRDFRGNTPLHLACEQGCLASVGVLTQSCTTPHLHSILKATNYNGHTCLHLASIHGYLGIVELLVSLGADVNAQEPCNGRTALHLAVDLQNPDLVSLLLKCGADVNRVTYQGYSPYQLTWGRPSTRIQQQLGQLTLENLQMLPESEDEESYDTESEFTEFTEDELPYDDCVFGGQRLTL

C13 [4] = assay: Antimigratory activity in human C13 cells at 10 uM by scratch-wound motility assay; format: functional, cell-based; conditions: TDE = time-dependent effect
C13 [5] = assay: Antimigratory activity in human C13 cells after 24 hrs by scratch-wound motility assay; format: functional, cell-based
C13 [6] = assay: Antimigratory activity in human C13 cells assessed as delay in wound closure at 15 uM after 24 hrs by scratch-wound motility assay; format: functional

RAC-alpha serine/threonine-protein kinase, sequence (P31749 whole entry): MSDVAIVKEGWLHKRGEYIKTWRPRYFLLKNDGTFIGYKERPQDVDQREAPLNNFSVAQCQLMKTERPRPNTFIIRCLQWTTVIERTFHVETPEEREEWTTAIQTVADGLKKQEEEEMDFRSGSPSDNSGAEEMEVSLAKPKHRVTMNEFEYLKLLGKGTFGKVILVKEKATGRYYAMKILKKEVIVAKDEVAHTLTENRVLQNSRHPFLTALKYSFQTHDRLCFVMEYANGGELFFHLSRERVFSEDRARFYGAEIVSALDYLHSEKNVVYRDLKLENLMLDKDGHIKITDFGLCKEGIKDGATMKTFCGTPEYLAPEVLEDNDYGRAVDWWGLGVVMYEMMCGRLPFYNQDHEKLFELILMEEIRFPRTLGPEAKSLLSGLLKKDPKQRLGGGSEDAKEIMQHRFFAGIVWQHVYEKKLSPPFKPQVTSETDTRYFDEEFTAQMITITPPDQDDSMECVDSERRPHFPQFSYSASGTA
Ephrin type-A receptor 2, sequence (P29317 whole entry, the tested form may be a part): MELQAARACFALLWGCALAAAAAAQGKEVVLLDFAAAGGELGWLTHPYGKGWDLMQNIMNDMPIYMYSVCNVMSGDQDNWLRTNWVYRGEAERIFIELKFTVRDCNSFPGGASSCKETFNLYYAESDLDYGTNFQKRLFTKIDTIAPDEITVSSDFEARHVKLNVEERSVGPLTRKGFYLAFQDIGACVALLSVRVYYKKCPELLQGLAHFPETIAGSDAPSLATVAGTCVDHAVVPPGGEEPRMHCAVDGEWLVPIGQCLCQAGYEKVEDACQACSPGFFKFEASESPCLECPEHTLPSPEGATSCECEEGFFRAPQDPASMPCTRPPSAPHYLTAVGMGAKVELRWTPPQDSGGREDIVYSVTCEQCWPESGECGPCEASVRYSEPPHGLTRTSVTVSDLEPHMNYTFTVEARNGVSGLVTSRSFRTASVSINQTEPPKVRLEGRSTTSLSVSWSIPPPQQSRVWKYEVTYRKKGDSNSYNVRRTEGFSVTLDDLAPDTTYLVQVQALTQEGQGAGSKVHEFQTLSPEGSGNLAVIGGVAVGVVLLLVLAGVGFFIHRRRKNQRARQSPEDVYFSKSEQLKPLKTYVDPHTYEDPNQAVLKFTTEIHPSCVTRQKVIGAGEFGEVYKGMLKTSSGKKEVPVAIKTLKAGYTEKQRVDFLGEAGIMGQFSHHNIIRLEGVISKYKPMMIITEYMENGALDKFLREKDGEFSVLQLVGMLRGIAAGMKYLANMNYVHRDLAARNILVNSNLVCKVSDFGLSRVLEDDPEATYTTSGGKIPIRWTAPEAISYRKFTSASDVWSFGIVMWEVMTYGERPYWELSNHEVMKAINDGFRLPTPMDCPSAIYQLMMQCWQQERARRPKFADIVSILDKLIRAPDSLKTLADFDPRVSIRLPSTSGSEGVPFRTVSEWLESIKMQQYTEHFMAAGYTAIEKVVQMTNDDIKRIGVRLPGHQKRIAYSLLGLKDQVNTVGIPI

| Compound | Kd (Ephrin type-A receptor 2) | Kd [1] | Selectivity ratio (Homo sapiens) | Kd [2] | Kd [3] | Activity (C13 [4]) | Activity (C13 [5]) | Activity (C13 [6]) |
| --- | --- | --- | --- | --- | --- | --- | --- | --- |
| NC(=O)[C@H](CCCCNC(=S)Nc1ccc(-c2c3ccc(=O)cc-3oc3cc(O)ccc23)c(C(=O)O)c1)NC(=O)CN1C[C@H](Cc2ccccc2)NC(=O)CN(C(=O)CCC(=O)O)C[C@H](CCC(=O)O)NC(=O)CN(C(=O)Cc2ccc3c(c2)OCO3)C[C@H](CCC(=O)O)NC(=O)CN(C(=O)CCC2CCCCC2)C[C@H](Cc2ccccc2)NC(=O)c2ccc(cc2)CSCCC1=O | 81 nM | 14200 nM | 170 | 3620 nM | 741 nM | – | – | – |
| NC(=O)CN1C[C@H](Cc2ccccc2)NC(=O)CN(C(=O)CCC(=O)O)C[C@H](CCC(=O)O)NC(=O)CN(C(=O)Cc2ccc3c(c2)OCO3)C[C@H](CCC(=O)O)NC(=O)CN(C(=O)CCC2CCCCC2)C[C@H](Cc2ccccc2)NC(=O)c2ccc(cc2)CSCCC1=O | – | – | – | – | – | Tde | Dose-dependent effect | 70% |
